Experimental data from PMC10514301 (Signal Transduction and Targeted Therapy, 2023).

Key:
[1] = tested on: SARS-CoV-2 Omicron BA.1 variant; experiment: Antiviral activity against SARS-CoV-2 Omicron BA.1 in HEK293T-hACE2-TMPRSS2 cells (qRT-PCR); format: cell-based; settings: Severe acute respiratory syndrome coronavirus 2, 24 h; read-out: EC50 mean ± sd, HEK293T-ACE2-T2, Omicron BA.1
SARS-CoV-2 Delta variant [2] = experiment: Antiviral activity against SARS-CoV-2 Delta in Vero E6 cells (viral RNA copies, qRT-PCR); format: cell-based
[3] = tested on: SARS-CoV-2 Omicron BA.1 variant; experiment: Antiviral activity against SARS-CoV-2 Omicron BA.1 in Vero E6 cells (qRT-PCR); format: cell-based
[4] = tested on: SARS-CoV-2 Omicron BA.5 variant; experiment: Antiviral activity against SARS-CoV-2 Omicron BA.5 in Vero E6 cells (qRT-PCR); format: cell-based
[5] = tested on: SARS-CoV-2 Omicron BA.5 variant; experiment: Antiviral activity against SARS-CoV-2 Omicron BA.5 in HEK293T-hACE2-TMPRSS2 cells (qRT-PCR); format: cell-based; settings: Severe acute respiratory syndrome coronavirus 2, 24 h; read-out: EC50 mean ± sd, HEK293T-ACE2-T2, Omicron BA.5
SARS-CoV-2 Delta variant [6] = experiment: Antiviral activity against SARS-CoV-2 Delta in HEK293T-hACE2-TMPRSS2 cells (qRT-PCR); format: cell-based; settings: Severe acute respiratory syndrome coronavirus 2, 24 h; read-out: EC50 mean ± sd, HEK293T-ACE2-T2, Delta
SARS-CoV-2 Delta variant [7] = format: in vivo, K18-hACE2 mice
[8] = tested on: SARS-CoV-2 variants (Delta, Omicron BA.1, and Omicron BA.5), HCoV-OC43, and HCoV-229E; experiment: organism not typed; format: cell-based; settings: read-out: half-maximal effective concentrations (EC50), range over HCoVs and cell lines
[9] = Severe acute respiratory syndrome coronavirus 2, Vero C1008, 24 h, read-out: EC50 mean ± sd, Vero E6, Delta
[10] = Severe acute respiratory syndrome coronavirus 2, Vero C1008, 24 h, read-out: EC50 mean ± sd, Vero E6, Omicron BA.1
[11] = Severe acute respiratory syndrome coronavirus 2, Vero C1008, 24 h, read-out: EC50 mean ± sd, Vero E6, Omicron BA.5

Row | Structure (SMILES) | EC50 [1] [nM] | EC50 (SARS-CoV-2 Delta variant [2]; [9]) [nM] | EC50 [3, 10] [nM] | EC50 [4, 11] [nM] | EC50 [5] [nM] | EC50 (SARS-CoV-2 Delta variant [6]) [nM] | expression of IL-6 and CCL2 in the lungs (SARS-CoV-2 Delta variant [7]; initial days (day 2)) | reduction of lung viral loads compared to the vehicle group (SARS-CoV-2 Delta variant [7]; oral BID, […], VV116 50 and 100 mpk, nirmatrelvir 100 mpk with ritonavir 50 mpk, Combo = VV116 50 + nirmatrelvir 100 + ritonavir 50 mpk) | EC50 (SARS-CoV-2 Delta variant [2]; Severe acute respiratory syndrome coronavirus 2, Vero C1008, Vero E6 cells, read-out: EC50 against the SARS-CoV-2 Delta variant in Vero E6 cells) [nM] | EC50 ([3]; Severe acute respiratory syndrome coronavirus 2, Vero C1008, Vero E6 cells, read-out: EC50 against the SARS-CoV-2 Omicron BA.1 variant in Vero E6 cells) [nM] | EC50 ([4]; Severe acute respiratory syndrome coronavirus 2, Vero C1008, Vero E6 cells, read-out: EC50 against Omicron BA.5) [nM] | EC50 [8] [nM]
1 | N#C[C@@]1(c2ccc3c(N)ncnn23)O[C@H](CO)[C@@H](O)[C@H]1O [GS-441524] | 380 ± 40 | 610 ± 79 | 280 ± 11 | 100 ± 11 | 750 ± 64 | 250 ± 140 | – | – | – | – | – | –
2 | CC(C)(C)[C@H](NC(=O)C(F)(F)F)C(=O)N1C[C@H]2[C@@H]([C@H]1C(=O)N[C@H](C#N)C[C@@H]1CCNC1=O)C2(C)C [Nirmatrelvir, nirmatrelvir] | – | – | – | – | – | – | reduction | 1–2 log | – | – | – | –
3 | CCC(CC)COC(=O)[C@H](C)N[P@](=O)(OC[C@H]1O[C@@](C#N)(c2ccc3c(N)ncnn23)[C@H](O)[C@@H]1O)Oc1ccccc1 [RDV, remdesivir] | – | – | – | – | – | – | – | – | 2200 | 540 | 130 | –
4 | [2H]c1cc([C@]2(C#N)O[C@H](CO)[C@@H](O)[C@H]2O)n2ncnc(N)c12 [X1] | 720 ± 24 | 830 ± 71 | 300 ± 27 | 460 ± 4 | 450 ± 100 | 150 ± 37 | – | – | – | – | – | 60 to 1100
